Literature values in patent publication US6645508B1, “Stable L-ascorbic acid composition” (priority 1999, dated 2003).

Tested on: human skin fibroblasts
Settings: at concentrations equivalent to L-Ascorbic acid

## CCCCCCCCCCCCCCCC(=O)OC[C@H](O)[C@H]1OC(=O)C(O)=C1O [ascorbyl palmitate]
  effect on human skin fibroblasts: killed human skin fibroblasts
